{"source": "ChEMBL document CHEMBL5137136", "about": "“A Cytotoxic Heterodimeric Cyclic Diarylheptanoid with a Rearranged Benzene Ring from the Seagrass Zostera marina” (J Nat Prod, 2022)", "key": {"HCT-116 [1]": {"tested_on": "HCT-116", "test": "Cytotoxicity against human HCT-116 cells assessed as cell growth inhibition at 10 uM incubated for 48 hrs by MTT assay relative to control", "assay_type": "functional"}, "HCT-116 [2]": {"tested_on": "HCT-116", "test": "Cytotoxicity against human HCT-116 cells assessed as reduction in cell viability incubated for 48 hrs by MTT assay", "assay_type": "functional, cell-based", "conditions": "HCT-116, 48 h"}, "HCT-116 [3]": {"tested_on": "HCT-116", "test": "Cytotoxicity against human HCT-116 cells assessed as reduction in cell viability at 10 uM incubated for 48 hrs by MTT assay relative to control", "assay_type": "functional"}, "HCT-116 [4]": {"tested_on": "HCT-116", "test": "Induction of morphological changes in human HCT-116 cells at 10 uM incubated for 48 hrs by phase contrast microscopy analysis", "assay_type": "functional, cell-based"}}, "note": "The source made the active and inactive calls. The calls are words filed in the database; no cut-off is given here.", "data": [{"compound": "COc1cc2c3c(c1O)-c1cc(ccc1O)CC/C=C\\[C@@H]3C([C@@H]1C3=CC(=O)[C@@]4(O)Oc5ccc(cc5[C@@H]14)CC/C=C\\C=C\\C3)=C2", "values": [{"measurement": "inhibition at 10 µM", "setting": "HCT-116 [1]", "result": 23, "unit": "%"}]}, {"compound": "COc1cc(O)c2cc1CC/C=C\\C=C\\CC1=C(O)C(=O)C=C(O2)[C@H]1C1=Cc2cc(OC)c(O)c3c2[C@@H]1/C=C\\CCc1ccc(O)c-3c1", "values": [{"measurement": "IC50", "setting": "HCT-116 [2]", "result": 3.6, "unit": "µM"}, {"measurement": "Activity", "setting": "HCT-116 [3]", "result": 97, "unit": "%"}]}, {"compound": "COc1cc2c3c(c1O)-c1cc(ccc1O)CC/C=C\\[C@@H]3C([C@@H]1C3=CC(=O)[C@]14C(=O)Oc1ccc(cc14)CC/C=C\\C=C\\C3)=C2", "values": [{"measurement": "IC50", "setting": "HCT-116 [2]", "result": 7.6, "unit": "µM"}, {"measurement": "Activity", "setting": "HCT-116 [4]", "result": "Active"}, {"measurement": "inhibition at 10 µM", "setting": "HCT-116 [1]", "result": 73, "unit": "%"}]}]}
